In this experiment the test system is endogenous interferon. Also noted: species or system non-linear white mice. The conditions noted are these: mouse, in vivo, ip.

Turning to Poly I:C, the “Minimum Dose Inducing Interferon” value was found to be 5 µg/mL and the “Titer of ME Interferons” value is given as 1638 ME.

These data come from patent US20120196801A1, “Wound-healing, anti-ambustial, regenerating, and anti-viral pharmaceutical formula for local administration” (priority 2011, published 2012).
